These results are taken from patent publication US9296704B2, “Substituted pyrimidines as protein kinase inhibitors” (CELGENE AVILOMICS RESEARCH, INC., priority 2007, dated 2016).

One test has as its target ErbB1 (Homo sapiens, UniProt P00533). Kind of test: Z'-LYTE biochemical assay, ErbB1 kinase inhibition. The method, then:
(§1) Compounds of the present invention were assayed as inhibitors of one or more of ErbB1, ErbB2, and/or ErbB4 in a manner substantially similar to the method described by Invitrogen Corp (Invitrogen Corporation, 1600 Faraday Avenue, Carlsbad, Calif., CA; http://www.invitrogen.com/downloads/Z-LYTE_Brochure—1205.pdf) using the Z′-LYTE™ biochemical assay procedure or similar biochemical assay. The Z′-LYTE™ biochemical assay employs a fluorescence-based, coupled-enzyme format and is based on the differential sensitivity of phosphorylated and non-phosphorylated peptides to proteolytic cleavage.

For a further test, the target named is T1, JAK3 (Homo sapiens, UniProt P52333).
T1 sequence (P52333 1-1124): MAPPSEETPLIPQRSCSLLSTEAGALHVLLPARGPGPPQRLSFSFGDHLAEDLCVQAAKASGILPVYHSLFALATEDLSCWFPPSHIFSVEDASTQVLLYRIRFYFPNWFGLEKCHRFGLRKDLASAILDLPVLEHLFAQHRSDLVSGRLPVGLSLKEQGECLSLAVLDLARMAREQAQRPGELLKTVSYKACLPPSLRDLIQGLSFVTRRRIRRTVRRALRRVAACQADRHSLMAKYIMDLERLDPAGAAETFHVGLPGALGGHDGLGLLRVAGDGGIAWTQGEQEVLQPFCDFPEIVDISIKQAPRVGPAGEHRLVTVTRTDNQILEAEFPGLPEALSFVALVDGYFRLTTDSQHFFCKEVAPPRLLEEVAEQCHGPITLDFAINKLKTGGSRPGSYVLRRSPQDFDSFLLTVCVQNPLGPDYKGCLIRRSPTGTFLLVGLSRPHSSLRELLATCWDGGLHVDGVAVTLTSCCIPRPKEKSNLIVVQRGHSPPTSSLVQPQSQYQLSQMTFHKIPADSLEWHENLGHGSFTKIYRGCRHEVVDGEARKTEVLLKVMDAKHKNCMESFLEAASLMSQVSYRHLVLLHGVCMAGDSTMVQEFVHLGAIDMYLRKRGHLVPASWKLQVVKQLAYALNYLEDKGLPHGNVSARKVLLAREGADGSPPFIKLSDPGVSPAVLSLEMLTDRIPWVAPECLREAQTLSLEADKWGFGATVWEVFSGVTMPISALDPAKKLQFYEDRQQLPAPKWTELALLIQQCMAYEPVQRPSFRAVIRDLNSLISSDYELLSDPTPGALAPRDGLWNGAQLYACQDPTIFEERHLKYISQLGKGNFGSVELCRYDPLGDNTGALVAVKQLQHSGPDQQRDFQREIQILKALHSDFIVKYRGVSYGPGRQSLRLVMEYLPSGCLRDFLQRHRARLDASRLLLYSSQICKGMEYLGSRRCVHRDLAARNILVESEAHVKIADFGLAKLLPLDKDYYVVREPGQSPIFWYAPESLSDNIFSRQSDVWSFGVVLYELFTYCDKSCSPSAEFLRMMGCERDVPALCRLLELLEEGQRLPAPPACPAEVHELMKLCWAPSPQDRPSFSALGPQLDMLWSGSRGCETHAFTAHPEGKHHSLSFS
The experiment in a line: Omnia assay for potency against JAK3. The test is classed as biochemical. As to conditions: read-out: JAK3 Inhibition. Summed up: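 Continuous-read Omnia kinase assay with 5 nM JAK3, 5 μM ATP (near apparent Km) and 5 μM Y12-Sox peptide in Tris pH 7.5/MgCl2 buffer; enzyme pre-incubated with compound 30 min at 27 °C. Fluorescence (ex360/em485) read over 60 min; initial velocities fitted against inhibitor concentration to give IC50.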

The next test has as its target T2, EGFR (T790M/L858R) (Homo sapiens, UniProt P00533, L858R/T790M).
T2 construct: purchased BPS Bioscience 40350
Kind of test: Omnia continuous-read kinase assay, EGFR (T790M/L858R). The test is classed as biochemical. As to conditions: read-out: EGFR (T790M/L858R) inhibiton. The text has this:
(§2) The protocol below describes continuous-read kinase assays to measure inherent potency of compounds against active forms of EGFR (WT) and EGFR (T790M/L858R) enzymes. The mechanics of the assay platform are best described by the vendor (Invitrogen, Carlsbad, Calif.) on their website at the following URL: http://www.invitrogen.com/content.cfm?pageid=11338 or http://www.invitrogen.com/site/us/en/home/Products-and-Services/Applications/Drug-Discovery/Target-and-Lead-Identification-and-Validation/KinaseBiology/KB-Misc/Biochemical-Assays/Omnia-Kinase-Assays.html.
(§3) Briefly, 10× stocks of EGFR-WT (PV3872) from Invitrogen and EGFR-T790M/L858R (40350) from BPS Bioscience, San Diego, Calif., 1.13×ATP (AS001A) and appropriate Tyr-Sox conjugated peptide substrates (KCZI001) were prepared in 1× kinase reaction buffer consisting of 20 mM Tris, pH 7.5, 5 mM MgCl2, 1 mM EGTA, 5 mM β-glycerophosphate, 5% glycerol (10× stock, KB002A) and 0.2 mM DTT (DS001A). 5 μL of each enzyme were pre-incubated in a Corning (#3574) 384-well, white, non-binding surface microtiter plate (Corning, NY) for 30 min. at 27° C. with a 0.5 μL volume of 50% DMSO and serially diluted compounds prepared in 50% DMSO. Kinase reactions were started with the addition of 45 μL of the ATP/Tyr-Sox peptide substrate mix and monitored every 30-90 seconds for 60 minutes at λex360/λem485 in a Synergy^4 plate reader from BioTek (Winooski, Vt.). At the conclusion of each assay, progress curves from each well were examined for linear reaction kinetics and fit statistics (R^2, 95% confidence interval, absolute sum of squares). Initial velocity (0 minutes to ˜30 minutes) from each reaction was determined from the slope of a plot of relative fluorescence units vs time (minutes) and then plotted against inhibitor concentration to estimate IC50 from log [Inhibitor] vs Response, Variable Slope model in GraphPad Prism from GraphPad Software (San Diego, Calif.).
The EGFR-WT- and EGFR T790M/L858R-modified optimized reagent conditions are: • [EGFR-WT]=5 nM, [ATP]=[…], [Y12-Sox]=[…]; and [EGFR-T790M/L858R]=3 nM, [ATP]=[…], [Y12-Sox]=[…].

In a further test the target is BTK (Homo sapiens, UniProt Q06187). The experiment in a line: Omnia assay for potency against BTK. The test is classed as biochemical. Particulars: read-out: BTK Inhibition. The procedure, abridged:
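BTK (5 nM) was pre-incubated 30 min at 27° C with serially diluted compounds in Tris pH 7.5/MgCl2 buffer, then started with […] and Y5-Sox peptide 10 mM (ATP KMapp ~36 mM). Fluorescence (ex360/em485) was read continuously over 60 min. IC50 came from initial velocities using a variable-slope fit.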

A further test addresses ErbB4 (Homo sapiens, UniProt Q15303). Kind of test: Z'-LYTE biochemical assay, ErbB4 kinase inhibition. As to conditions: @ 1 μM. The method, then: as §1
The target of the next test is T3, EGFR (WT) (Homo sapiens, UniProt P00533).
T3 construct: purchased Invitrogen PV3872
Kind of test: Omnia continuous-read kinase assay, EGFR (WT). As to conditions: read-out: EGFR inhibtion. The format is biochemical. Summed up: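 Enzyme pre-incubated 30 min at 27 °C with compound, then ATP/Y12-Sox peptide added; fluorescence (ex360/em485) read continuously 60 min in 20 mM Tris pH 7.5, 5 mM MgCl2, 0.2 mM DTT. WT: 5 nM enzyme, […]; T790M/L858R: 3 nM enzyme, […]. IC50 from initial velocities, variable-slope fit.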

The target in a further test is ErbB2 (Homo sapiens, UniProt P04626). The experiment in a line: Z'-LYTE biochemical assay, ErbB2 kinase inhibition. As to conditions: @ 1 μM. On the procedure:
as §1

Test [1] deals with BTK signaling in Ramos cells. The experiment in a line: BTK Ramos cellular assay (PLCγ2 phosphorylation). The format is cell-based. As to conditions: Homo sapiens; for IC50: Ramos cells, PLCγ2 phosphorylation, read-out: BTK Inhibition. The method, then:
Compounds 1-13 and (I-52) were assayed in Ramos human Burkitt lymphoma cells. Ramos cells were grown in suspension in T225 flasks, spun down, resuspended in 50 mls serum-free media and incubated for 1 hour. Compound was added to Ramos cells in serum free media to a final concentration of 1, 0.1, 0.01, or 0.001 μM. Ramos cells were incubated with compound for 1 hour, washed again and resuspended in 100 ul serum-free media. Cells were then stimulated with 1 μg of goat F(ab′)2 Anti-Human IgM and incubated on ice for 10 minutes to activate B cell receptor signaling pathways. After 10 minutes, the cells were washed once with PBS and then lysed on ice with Invitrogen Cell Extraction buffer. 16 μg total protein from lysates was loaded on gels and blots were probed for phosphorylation of the BTK substrate PLCγ2. […] Additional dose response inhibition of BTK signaling with I-13 is depicted in FIG. 9.

The next test concerns the target T4, ITK (Homo sapiens, UniProt Q08881).
T4 sequence (Q08881 1-620): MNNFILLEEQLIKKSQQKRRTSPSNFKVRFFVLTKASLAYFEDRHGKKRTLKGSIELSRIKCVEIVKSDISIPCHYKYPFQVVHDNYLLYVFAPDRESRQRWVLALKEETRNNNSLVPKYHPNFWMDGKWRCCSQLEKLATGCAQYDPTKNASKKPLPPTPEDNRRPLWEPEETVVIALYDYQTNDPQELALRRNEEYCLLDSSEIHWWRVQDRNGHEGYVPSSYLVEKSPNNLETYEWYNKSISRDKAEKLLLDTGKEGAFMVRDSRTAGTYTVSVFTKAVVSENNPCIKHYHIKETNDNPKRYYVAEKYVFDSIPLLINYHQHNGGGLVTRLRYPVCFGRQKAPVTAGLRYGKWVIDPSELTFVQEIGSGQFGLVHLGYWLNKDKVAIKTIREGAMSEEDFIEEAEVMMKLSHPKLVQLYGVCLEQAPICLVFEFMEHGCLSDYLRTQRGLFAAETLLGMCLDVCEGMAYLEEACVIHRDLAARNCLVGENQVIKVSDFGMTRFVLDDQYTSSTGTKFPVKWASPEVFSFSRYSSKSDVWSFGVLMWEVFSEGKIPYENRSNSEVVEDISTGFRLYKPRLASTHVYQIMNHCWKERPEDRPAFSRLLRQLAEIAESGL
Kind of test: Omnia assay for potency against ITK. The test is classed as biochemical. As to conditions: read-out: ITK inhibition.
From the text: as §2, §3
This example describes continuous-read kinase assays to measure inherent potency of compound against active forms of ITK enzymes as described in Example 10 above except that the modified ITK-optimized reagent conditions are: • [ITK]=10 nM, [ATP]=25 μM, [Y6-Sox]=10 μM (ATP KMapp=33 μM).

BTK, sequence (Q06187 whole entry): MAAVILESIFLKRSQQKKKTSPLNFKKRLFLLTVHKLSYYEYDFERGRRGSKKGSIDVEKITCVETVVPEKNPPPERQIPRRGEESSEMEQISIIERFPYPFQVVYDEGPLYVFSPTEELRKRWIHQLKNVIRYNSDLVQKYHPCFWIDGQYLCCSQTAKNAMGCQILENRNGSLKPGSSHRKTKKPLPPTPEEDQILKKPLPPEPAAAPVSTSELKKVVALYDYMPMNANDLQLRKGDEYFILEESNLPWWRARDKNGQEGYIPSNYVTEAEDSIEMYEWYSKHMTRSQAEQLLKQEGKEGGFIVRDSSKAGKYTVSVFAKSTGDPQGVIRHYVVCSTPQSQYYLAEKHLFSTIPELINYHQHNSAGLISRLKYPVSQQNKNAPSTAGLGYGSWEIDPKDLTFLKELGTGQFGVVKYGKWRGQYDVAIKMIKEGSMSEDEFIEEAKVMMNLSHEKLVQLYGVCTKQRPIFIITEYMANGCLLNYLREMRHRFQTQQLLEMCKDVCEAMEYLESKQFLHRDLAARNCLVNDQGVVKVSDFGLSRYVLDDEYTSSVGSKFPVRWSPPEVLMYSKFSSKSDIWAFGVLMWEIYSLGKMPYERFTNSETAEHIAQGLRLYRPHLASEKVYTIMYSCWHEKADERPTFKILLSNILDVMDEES
ErbB4, sequence (Q15303 26-1308): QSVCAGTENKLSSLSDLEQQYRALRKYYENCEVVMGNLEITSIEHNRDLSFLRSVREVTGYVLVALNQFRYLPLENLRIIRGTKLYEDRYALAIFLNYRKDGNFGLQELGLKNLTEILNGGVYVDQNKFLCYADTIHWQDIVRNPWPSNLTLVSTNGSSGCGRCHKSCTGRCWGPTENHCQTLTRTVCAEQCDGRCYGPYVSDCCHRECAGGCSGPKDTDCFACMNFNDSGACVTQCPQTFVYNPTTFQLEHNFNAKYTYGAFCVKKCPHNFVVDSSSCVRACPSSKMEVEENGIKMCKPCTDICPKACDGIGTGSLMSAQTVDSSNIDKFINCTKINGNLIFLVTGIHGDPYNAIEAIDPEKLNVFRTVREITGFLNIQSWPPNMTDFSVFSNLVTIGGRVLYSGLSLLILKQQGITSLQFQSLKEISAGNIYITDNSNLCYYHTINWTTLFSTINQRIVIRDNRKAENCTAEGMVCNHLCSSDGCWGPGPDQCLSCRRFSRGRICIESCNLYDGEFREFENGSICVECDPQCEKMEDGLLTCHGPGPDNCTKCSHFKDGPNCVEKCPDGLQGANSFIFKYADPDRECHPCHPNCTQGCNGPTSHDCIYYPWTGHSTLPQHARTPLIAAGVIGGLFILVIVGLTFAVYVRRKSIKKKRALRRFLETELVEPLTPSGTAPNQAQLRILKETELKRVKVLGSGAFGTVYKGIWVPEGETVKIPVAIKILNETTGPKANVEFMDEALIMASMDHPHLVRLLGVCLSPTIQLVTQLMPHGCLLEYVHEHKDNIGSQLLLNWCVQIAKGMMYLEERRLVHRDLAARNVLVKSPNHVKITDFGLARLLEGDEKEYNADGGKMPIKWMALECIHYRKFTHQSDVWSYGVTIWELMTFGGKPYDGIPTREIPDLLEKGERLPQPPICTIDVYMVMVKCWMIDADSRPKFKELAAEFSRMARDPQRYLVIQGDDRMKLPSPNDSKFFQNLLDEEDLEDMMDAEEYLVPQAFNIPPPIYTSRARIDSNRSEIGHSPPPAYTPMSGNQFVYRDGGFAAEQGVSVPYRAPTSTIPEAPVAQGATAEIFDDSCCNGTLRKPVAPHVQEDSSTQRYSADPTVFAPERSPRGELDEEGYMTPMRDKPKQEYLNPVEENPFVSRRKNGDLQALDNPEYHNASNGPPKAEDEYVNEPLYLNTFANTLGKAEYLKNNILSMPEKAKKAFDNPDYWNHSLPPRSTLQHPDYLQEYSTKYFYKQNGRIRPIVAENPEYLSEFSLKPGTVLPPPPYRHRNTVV
T3 sequence (P00533 25-1210): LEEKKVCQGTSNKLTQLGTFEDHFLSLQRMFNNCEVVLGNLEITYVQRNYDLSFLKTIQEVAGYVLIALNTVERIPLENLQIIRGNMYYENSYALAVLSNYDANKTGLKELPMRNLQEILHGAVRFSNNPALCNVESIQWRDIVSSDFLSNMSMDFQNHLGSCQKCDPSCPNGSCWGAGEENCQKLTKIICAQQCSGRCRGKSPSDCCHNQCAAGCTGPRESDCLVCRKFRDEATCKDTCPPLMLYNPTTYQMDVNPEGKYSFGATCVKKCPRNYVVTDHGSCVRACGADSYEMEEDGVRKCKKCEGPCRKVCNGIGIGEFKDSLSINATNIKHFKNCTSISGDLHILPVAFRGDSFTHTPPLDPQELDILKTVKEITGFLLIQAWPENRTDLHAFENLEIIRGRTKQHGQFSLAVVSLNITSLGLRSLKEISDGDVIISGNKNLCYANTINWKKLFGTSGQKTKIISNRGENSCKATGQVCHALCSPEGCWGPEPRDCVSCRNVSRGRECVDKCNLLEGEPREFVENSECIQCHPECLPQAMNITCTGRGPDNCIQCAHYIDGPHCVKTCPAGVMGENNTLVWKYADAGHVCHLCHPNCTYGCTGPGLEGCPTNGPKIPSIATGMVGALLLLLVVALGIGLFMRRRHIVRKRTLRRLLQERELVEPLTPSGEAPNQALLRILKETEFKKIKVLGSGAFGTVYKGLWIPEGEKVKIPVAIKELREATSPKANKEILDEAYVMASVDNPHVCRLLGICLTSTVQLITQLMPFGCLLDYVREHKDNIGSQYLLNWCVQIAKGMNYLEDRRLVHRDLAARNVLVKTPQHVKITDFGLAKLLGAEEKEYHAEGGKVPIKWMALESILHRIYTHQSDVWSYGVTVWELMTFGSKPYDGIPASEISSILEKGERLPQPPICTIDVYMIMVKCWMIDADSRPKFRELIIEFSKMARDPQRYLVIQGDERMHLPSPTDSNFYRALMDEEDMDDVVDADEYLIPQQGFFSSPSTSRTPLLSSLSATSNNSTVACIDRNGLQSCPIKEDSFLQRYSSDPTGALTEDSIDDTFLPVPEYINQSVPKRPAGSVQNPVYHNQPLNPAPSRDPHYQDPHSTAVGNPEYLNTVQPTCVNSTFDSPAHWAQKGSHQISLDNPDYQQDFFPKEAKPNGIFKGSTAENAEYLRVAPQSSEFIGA
T2 sequence (P00533 25-1210 T790M/L858R): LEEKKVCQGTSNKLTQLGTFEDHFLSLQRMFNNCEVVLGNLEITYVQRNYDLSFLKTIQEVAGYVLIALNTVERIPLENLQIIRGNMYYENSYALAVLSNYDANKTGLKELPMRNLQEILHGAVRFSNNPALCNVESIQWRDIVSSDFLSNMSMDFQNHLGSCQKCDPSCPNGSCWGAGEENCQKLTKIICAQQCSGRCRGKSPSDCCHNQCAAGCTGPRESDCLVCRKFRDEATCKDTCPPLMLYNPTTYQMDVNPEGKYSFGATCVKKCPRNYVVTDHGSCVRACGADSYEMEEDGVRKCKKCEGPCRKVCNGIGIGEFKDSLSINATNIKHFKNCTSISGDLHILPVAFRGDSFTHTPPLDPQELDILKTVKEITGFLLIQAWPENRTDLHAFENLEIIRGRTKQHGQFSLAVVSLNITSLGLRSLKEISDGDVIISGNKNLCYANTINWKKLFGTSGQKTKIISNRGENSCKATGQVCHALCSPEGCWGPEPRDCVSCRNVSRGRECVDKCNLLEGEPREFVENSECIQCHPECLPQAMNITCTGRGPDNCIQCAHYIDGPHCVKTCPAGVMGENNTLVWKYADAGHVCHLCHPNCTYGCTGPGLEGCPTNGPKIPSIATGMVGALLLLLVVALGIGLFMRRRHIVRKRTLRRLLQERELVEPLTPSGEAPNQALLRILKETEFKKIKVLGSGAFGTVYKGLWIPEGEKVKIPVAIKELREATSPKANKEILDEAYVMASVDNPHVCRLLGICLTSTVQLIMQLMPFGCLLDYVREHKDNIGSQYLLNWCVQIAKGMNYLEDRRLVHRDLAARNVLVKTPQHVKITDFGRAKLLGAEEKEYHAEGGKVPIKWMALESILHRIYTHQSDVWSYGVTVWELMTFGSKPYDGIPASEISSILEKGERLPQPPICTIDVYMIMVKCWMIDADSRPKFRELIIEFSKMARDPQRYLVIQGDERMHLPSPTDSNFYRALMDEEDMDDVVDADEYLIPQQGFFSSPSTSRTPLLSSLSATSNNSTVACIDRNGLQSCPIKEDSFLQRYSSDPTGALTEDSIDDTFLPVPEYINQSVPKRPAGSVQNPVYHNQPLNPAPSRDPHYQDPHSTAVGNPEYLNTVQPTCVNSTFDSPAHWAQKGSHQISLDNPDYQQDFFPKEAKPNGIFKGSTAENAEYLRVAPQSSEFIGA

For the molecule `C/C=C/C(=O)Nc1cccc(Nc2cc(Nc3cccc(Br)c3)ncn2)c1` [I-8, (E)-N-(3-[6-(3-bromophenylamino)-pyrimidin-4-ylamino]-phenyl)-2-butenamide], on ErbB1 (@ 10 nM), the inhibition – broadly, the relative decrease from the control value, in per cent – at 0.01 µM came out at 83%. In addition, the IC50 on JAK3 is 1000 to 10000 nM; on EGFR (T790M/L858R) it was 1000 to 10000 nM; on BTK, at least 10000 nM; at EGFR (WT) it was at most 10 nM. The inhibition at 1 µM against ErbB4 was 57%.

Regarding `C=CC(=O)Nc1cccc(Nc2cc(Oc3cccc(C(F)(F)F)c3)ncn2)c1` [I-9], the inhibition at 1 µM is 100% against ErbB1 (@ 1 μM) and 75% against ErbB4. For the same molecule, the IC50 on JAK3 was 100 to 1000 nM; at EGFR (T790M/L858R), 100 to 1000 nM; at BTK, 100 to 1000 nM; on EGFR (WT) it was at most 10 nM.

As to `CN(C)C/C=C/C(=O)Nc1cccc(Nc2cc(Nc3ccc(F)c(Cl)c3)ncn2)c1` [I-18, (E)-N-{3-[6-(3-chloro-4-fluorophenylamino)-pyrimidin-4-ylamino]phenyl}-4-dimethylamino-2-butenamide], the IC50 is 10 to 100 nM on JAK3, at most 10 nM on EGFR (T790M/L858R), 10 to 100 nM at BTK and at most 10 nM at EGFR (WT). For the same molecule, the figures for the inhibition at 1 µM against ErbB4 and on ErbB2 were 94% and 91%, respectively.

For `CN(C)C/C=C/C(=O)Nc1cccc(Nc2cc(Nc3ccc(F)c(Cl)c3)ncn2)n1` [I-52], the IC50 on JAK3, at BTK and at EGFR (WT) was at most 10 nM each time. In test [1] (Ramos, at 1 μM, 1 hour), this molecule yielded an inhibition at 1 µM of 50%.

`C=CC(=O)Nc1cccc(Nc2cc(Oc3ccc4c(c3)OCCO4)ncn2)n1` [I-95, N-(6-(6-(2,3-dihydrobenzo[b][1,4]dioxin-6-yloxy)pyrimidin-4-ylamino)pyridin-2-yl)acrylamide]: the IC50 on ITK is at least 10000 nM; on BTK, at most 10 nM; on EGFR (WT), at most 10 nM; in [1] it was at most 10 nM.

For `COc1ccc(NC(=O)/C=C/CN(C)CCCCNC(=O)CCCC(=O)NCCCOCCOCCOCCCNC(=O)CCCC[C@@H]2SC[C@@H]3NC(=O)N[C@@H]32)cc1Nc1cc(Nc2ccc(F)c(Cl)c2)ncn1` [I-99, N^1-(4-(((E)-4-(3-(6-(3-chloro-4-fluorophenylamino)pyrimidin-4-ylamino)-4-methoxyphenylamino)-4-oxobut-2-enyl)(methyl)amino)butyl)-N^5-(15-oxo-19-((3aS,4S,6aR)-2-oxohexahydro-1H-thieno[3,4-d]imidazol-4-yl)-4,7,10-trioxa-14-azanonadecyl)glutaramide], the IC50 (on BTK; at EGFR (WT); in test [1]) was at most 10 nM each time.

Regarding `C=CC(=O)Nc1cc(Nc2cc(Oc3ccc(Oc4ccccc4)cc3)ncn2)cc(C(=O)N2CCOCC2)c1` [I-100, N-(3-(morpholine-4-carbonyl)-5-(6-(4-phenoxy)pyrimidin-4-ylamino)phenyl)acrylamide], the IC50 at ITK was at least 10000 nM; at BTK it was at most 10 nM; on EGFR (WT), at most 10 nM; in [1], 10 to 100 nM.
